Measurements as given in patent US20250235543A1, “MODIFIED PROTEINS AND PROTEIN DEGRADERS” (Cullgen (Shanghai), Inc., priority 2021, published 2025).
Like-named read-outs stand apart in the source and are kept apart here.

Experiments:
cyclin D1 = assay: Cyclin D1 percentage degradation in Calu-1 cells (immunoblotting); assay type: cell-based; settings: 16 hours
Summary of the method: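 Cyclin D1 degradation was assessed by western blot. Clarified lysates, obtained by RIPA lysis with inhibitors and centrifugation at 13,000 rpm, were normalized by BCA protein assay and separated by SDS-PAGE. Bands were detected with Western ECL Substrate on a Bio-Rad ChemiDoc MP Imaging system and quantified in Image Lab software to derive percentage degradation.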

CDK4 = molecular target: T1, CDK4 (Homo sapiens, UniProt P11802); assay: CDK4 percentage degradation in Calu-1 cells (immunoblotting); assay type: cell-based; settings: for inhibition at 0.2 µM: read-out: CDK4 Degradation (200 nM); for inhibition at 10 µM: read-out: CDK4 Degradation (10 μM)
T1 construct: endogenous in cells; host or cells: Calu-1
Summary of the method: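 CDK4 degradation was measured by immunoblotting. Cells were washed in cold PBS and lysed in RIPA buffer with inhibitors for 30 min at 4° C., then spun at 13,000 rpm to clear. After BCA protein determination, lysates were heated at 99° C. for 5 min in Laemmli buffer, resolved on SDS-PAGE, imaged on a ChemiDoc MP with ECL substrate, and band intensities quantified.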

T1 sequence (P11802 2-303 limits assumed): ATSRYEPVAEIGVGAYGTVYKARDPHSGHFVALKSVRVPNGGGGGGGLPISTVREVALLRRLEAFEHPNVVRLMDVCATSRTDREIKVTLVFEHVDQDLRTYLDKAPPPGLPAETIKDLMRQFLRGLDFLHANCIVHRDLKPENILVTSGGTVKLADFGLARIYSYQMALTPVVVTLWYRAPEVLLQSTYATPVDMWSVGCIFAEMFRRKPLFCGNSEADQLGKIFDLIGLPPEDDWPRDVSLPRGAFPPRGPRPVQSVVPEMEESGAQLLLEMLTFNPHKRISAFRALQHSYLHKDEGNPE
T1 sequence (P24385 whole entry partner): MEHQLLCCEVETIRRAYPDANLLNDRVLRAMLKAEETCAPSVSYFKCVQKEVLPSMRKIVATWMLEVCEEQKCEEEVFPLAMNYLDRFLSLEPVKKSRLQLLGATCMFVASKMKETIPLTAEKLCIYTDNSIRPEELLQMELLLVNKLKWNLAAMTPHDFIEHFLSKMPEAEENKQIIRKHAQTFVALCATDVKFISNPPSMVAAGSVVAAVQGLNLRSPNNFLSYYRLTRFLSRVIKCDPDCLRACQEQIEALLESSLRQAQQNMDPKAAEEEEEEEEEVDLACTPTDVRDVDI
T1 sequence (Q16531 2-1140 limits assumed, further chain): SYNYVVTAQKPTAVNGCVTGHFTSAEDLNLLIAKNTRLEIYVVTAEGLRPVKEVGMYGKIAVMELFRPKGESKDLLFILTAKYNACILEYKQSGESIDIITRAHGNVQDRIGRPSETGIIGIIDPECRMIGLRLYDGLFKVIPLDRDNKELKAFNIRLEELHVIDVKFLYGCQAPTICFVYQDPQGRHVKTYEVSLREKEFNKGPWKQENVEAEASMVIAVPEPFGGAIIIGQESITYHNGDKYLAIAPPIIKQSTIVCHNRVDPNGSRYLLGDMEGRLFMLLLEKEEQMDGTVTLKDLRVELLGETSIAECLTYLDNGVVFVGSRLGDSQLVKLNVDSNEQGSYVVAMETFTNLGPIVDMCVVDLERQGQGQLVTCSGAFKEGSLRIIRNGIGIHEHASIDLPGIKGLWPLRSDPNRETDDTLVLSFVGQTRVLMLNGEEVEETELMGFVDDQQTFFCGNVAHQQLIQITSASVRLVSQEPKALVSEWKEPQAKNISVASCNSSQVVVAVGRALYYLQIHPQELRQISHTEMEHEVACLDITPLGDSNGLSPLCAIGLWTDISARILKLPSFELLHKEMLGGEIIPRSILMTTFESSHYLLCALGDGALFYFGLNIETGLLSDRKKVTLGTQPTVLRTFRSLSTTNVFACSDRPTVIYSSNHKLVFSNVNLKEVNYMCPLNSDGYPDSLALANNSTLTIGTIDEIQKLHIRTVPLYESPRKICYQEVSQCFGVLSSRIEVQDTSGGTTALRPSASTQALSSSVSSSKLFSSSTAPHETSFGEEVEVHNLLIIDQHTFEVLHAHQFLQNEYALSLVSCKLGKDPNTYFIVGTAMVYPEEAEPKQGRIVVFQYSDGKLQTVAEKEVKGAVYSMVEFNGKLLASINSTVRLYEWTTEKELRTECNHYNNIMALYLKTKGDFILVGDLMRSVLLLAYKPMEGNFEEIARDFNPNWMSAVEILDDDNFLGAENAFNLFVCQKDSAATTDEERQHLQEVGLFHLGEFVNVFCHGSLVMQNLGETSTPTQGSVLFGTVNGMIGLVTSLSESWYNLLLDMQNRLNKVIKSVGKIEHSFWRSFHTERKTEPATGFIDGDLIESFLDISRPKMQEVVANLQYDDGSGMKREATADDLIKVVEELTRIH

inhibition at 0.2 µM (CDK4; Calu-1 cells, 200 nM, 16 hours) [%] | inhibition at 10 µM (CDK4; Calu-1 cells, 16 hours) [%] | SMILES | CyclinD1 Degradation (200 nM) (cyclin D1) | CyclinD1 Degradation (10 μM) (cyclin D1) | inhibition at 0.2 µM (CDK4; Calu-1, 16 h) [%]
50 to 80 |  | CC(=O)c1c(C)c2cnc(Nc3ccc(N4CCN(CC(=O)NCCOCCOCCC(=O)Nc5c(C(=O)Nc6ccc(C)cn6)ccc6[nH]ccc56)CC4)cn3)nc2n(C2CCCC2)c1=O [CPD-361, 4-(3-(2-(2-(2-(4-(6-((6-acetyl-8-cyclopentyl-5-methyl-7-oxo-7,8-dihydropyrido[2,3-d]pyrimidin-2-yl)amino)pyridin-3-yl)piperazin-1-yl)acetamido)ethoxy)ethoxy)propanamido)-N-(5-methylpyridin-2-yl)-1H-indole-5-carboxamide] | A (protein percentage degradation >=80%) |  | 
 | 50 to 80 | Cc1nc(NC(=O)c2ccccc2NC(=O)CCOCCOCCOCCNC(=O)CN2CCN(c3ccc(Nc4ncc5cc6n(c5n4)C4(CCCCC4)CNC6=O)nc3)CC2)sc1C [CPD-324, N-(4,5-Dimethylthiazol-2-yl)-2-(2-oxo-1-(4-(6-((6′-oxo-7′,8′-dihydro-6′H-spiro[cyclohexane-1,9′-pyrazino[1′,2′:1,5]pyrrolo[2,3-d]pyrimidin]-2′-yl)amino)pyridin-3-yl)piperazin-1-yl)-6,9,12-trioxa-3-azapentadecan-15-amido)benzamide] |  | A (protein percentage degradation >= 80%) | 
< 30 |  | CC(=O)c1c(C)c2cnc(Nc3ccc(N4CCN(CC(=O)NCC(=O)Nc5ccccc5C(=O)Nc5nc(C)c(C)s5)CC4)cn3)nc2n(C2CCCC2)c1=O [CPD-180, 2-(2-(2-(4-(6-((6-Acetyl-8-cyclopentyl-5-methyl-7-oxo-7,8-dihydropyrido[2,3-d]pyrimidin-2-yl)amino)pyridin-3-yl)piperazin-1-yl)acetamido)acetamido)-N-(4,5-dimethylthiazol-2-yl)benzamide] | D (protein percentage degradation <30%) |  | 
50 to 80 |  | CC(=O)c1c(C)c2cnc(Nc3ccc(N4CCN(CC(=O)NCCOCCOCCOCCOCCNc5cccc(C(=O)Nc6nc(C)c(C)s6)c5C)CC4)cn3)nc2n(C2CCCC2)c1=O [CPD-106, 3-((1-(4-(6-((6-Acetyl-8-cyclopentyl-5-methyl-7-oxo-7,8-dihydropyrido[2,3-d]pyrimidin-2-yl)amino)pyridin-3-yl)piperazin-1-yl)-2-oxo-6,9,12,15-tetraoxa-3-azaheptadecan-17-yl)amino)-N-(4,5-dimethylthiazol-2-yl)-2-methylbenzamide] | A (protein percentage degradation >=80%) |  | 
 | 50 to 80 | Cc1nc(NC(=O)c2ccccc2NC(=O)CCCCCCCNC(=O)CN2CCN(c3ccc(Nc4ncc5cc6n(c5n4)C4(CCCCC4)CNC6=O)nc3)CC2)sc1C [CPD-320, N-(4,5-Dimethylthiazol-2-yl)-2-(8-(2-(4-(6-((6′-oxo-7′,8′-dihydro-6′H-spiro[cyclohexane-1,9′-pyrazino[1′,2′:1,5]pyrrolo[2,3-d]pyrimidin]-2′-yl)amino)pyridin-3-yl)piperazin-1-yl)acetamido)octanamido)benzamide] |  | A (protein percentage degradation >= 80%) | 
< 30 |  | CC(=O)c1c(C)c2cnc(Nc3ccc(N4CCN(CC(=O)NCCCCCCC(=O)Nc5ccccc5C(=O)Nc5nc(C)c(C)s5)CC4)cn3)nc2n(C2CCCC2)c1=O [CPD-169, 2-(7-(2-(4-(6-((6-Acetyl-8-cyclopentyl-5-methyl-7-oxo-7,8-dihydropyrido[2,3-d]pyrimidin-2-yl)amino)pyridin-3-yl)piperazin-1-yl)acetamido)heptanamido)-N-(4,5-dimethylthiazol-2-yl)benzamide] | D (protein percentage degradation <30%) |  | 
 |  | CC(=O)c1c(C)c2cnc(Nc3ccc(N4CCN(CCCCCCCCCCNc5cccc(C(=O)Nc6nc(C)c(C)s6)c5C)CC4)cn3)nc2n(C2CCCC2)c1=O [CPD-078, 3-((10-(4-(6-((6-Acetyl-8-cyclopentyl-5-methyl-7-oxo-7,8-dihydropyrido[2,3-d]pyrimidin-2-yl)amino)pyridin-3-yl)piperazin-1-yl)decyl)amino)-N-(4,5-dimethylthiazol-2-yl)-2-methylbenzamide] | D (protein percentage degradation <30%) |  | < 30
< 30 |  | CC(=O)c1c(C)c2cnc(Nc3ccc(N4CCN(CC(=O)NCCCCCCCNC(=O)CNc5ccc(C(=O)Nc6ncc(C)s6)c(C)c5)CC4)cn3)nc2n(C2CCCC2)c1=O [CPD-016, 4-((2-((7-(2-(4-(6-((6-Acetyl-8-cyclopentyl-5-methyl-7-oxo-7,8-dihydropyrido[2,3-d]pyrimidin-2-yl)amino)pyridin-3-yl)piperazin-1-yl)acetamido)heptyl)amino)-2-oxoethyl)amino)-2-methyl-N-(5-methylthiazol-2-yl)benzamide] | D (protein percentage degradation <30%) |  | 
50 to 80 |  | CC(=O)c1c(C)c2cnc(Nc3ccc(N4CCN(CC(=O)NCCOCCOCCC(=O)Nc5ccccc5C(=O)Nc5cnc(C)cn5)CC4)cn3)nc2n(C2CCCC2)c1=O [CPD-054, 2-(3-(2-(2-(2-(4-(6-((6-Acetyl-8-cyclopentyl-5-methyl-7-oxo-7,8-dihydropyrido[2,3-d]pyrimidin-2-yl)amino)pyridin-3-yl)piperazin-1-yl)acetamido)ethoxy)ethoxy)propanamido)-N-(5-methylpyrazin-2-yl)benzamide] | A (protein percentage degradation >=80%) |  | 
< 30 |  | CC(=O)c1c(C)c2cnc(Nc3ccc(N4CCN(CC(=O)NCCOCCOCCOCCOCCNc5ccc(C)c(C(=O)Nc6nc(C)c(C)s6)c5)CC4)cn3)nc2n(C2CCCC2)c1=O [CPD-118, 5-((1-(4-(6-((6-Acetyl-8-cyclopentyl-5-methyl-7-oxo-7,8-dihydropyrido[2,3-d]pyrimidin-2-yl)amino)pyridin-3-yl)piperazin-1-yl)-2-oxo-6,9,12,15-tetraoxa-3-azaheptadecan-17-yl)amino)-N-(4,5-dimethylthiazol-2-yl)-2-methylbenzamide] | D (protein percentage degradation <30%) |  | 
 | < 30 | Cc1nc(NC(=O)c2ccccc2NC(=O)CCOCCOCCOCCOCCOCCNC(=O)CN2CCN(c3ccc(Nc4ncc(F)c(-c5cc(F)c6nc(C)n(C(C)C)c6c5)n4)nc3)CC2)sc1C [CPD-312, N-(4,5-Dimethylthiazol-2-yl)-2-(1-(4-(6-((5-fluoro-4-(4-fluoro-1-isopropyl-2-methyl-1H-benzo[d]imidazol-6-yl)pyrimidin-2-yl)amino)pyridin-3-yl)piperazin-1-yl)-2-oxo-6,9,12,15,18-pentaoxa-3-azahenicosan-21-amido)benzamide] |  | A (protein percentage degradation >= 80%) | 
< 30 |  | CC(=O)c1c(C)c2cnc(Nc3ccc(N4CCN(CC(=O)NCCOCCNc5ccc(C)c(C(=O)Nc6nc(C)c(C)s6)c5)CC4)cn3)nc2n(C2CCCC2)c1=O [CPD-096, 5-((2-(2-(2-(4-(6-((6-Acetyl-8-cyclopentyl-5-methyl-7-oxo-7,8-dihydropyrido[2,3-d]pyrimidin-2-yl)amino)pyridin-3-yl)piperazin-1-yl)acetamido)ethoxy)ethyl)amino)-N-(4,5-dimethylthiazol-2-yl)-2-methylbenzamide] | D (protein percentage degradation <30%) |  | 
 |  | CC(=O)c1c(C)c2cnc(Nc3ccc(N4CCN(CC(=O)NCCOCCOCCOCCOCCOCCC(=O)Nc5ccccc5C(=O)Nc5nc(C)c(C)s5)CC4)cn3)nc2n(C2CCCC2)c1=O [CPD-175, 2-(1-(4-(6-((6-Acetyl-8-cyclopentyl-5-methyl-7-oxo-7,8-dihydropyrido[2,3-d]pyrimidin-2-yl)amino)pyridin-3-yl)piperazin-1-yl)-2-oxo-6,9,12,15,18-pentaoxa-3-azahenicosan-21-amido)-N-(4,5-dimethylthiazol-2-yl)benzamide] | A (protein percentage degradation >=80%) |  | > 80
> 80 |  | CC(=O)c1c(C)c2cnc(Nc3ccc(N4CCN(CC(=O)NCCOCCOCCC(=O)Nc5ccccc5C(=O)Nc5ccc(N(C)C)nn5)CC4)cn3)nc2n(C2CCCC2)c1=O [CPD-185, 2-(3-(2-(2-(2-(4-(6-((6-Acetyl-8-cyclopentyl-5-methyl-7-oxo-7,8-dihydropyrido[2,3-d]pyrimidin-2-yl)amino)pyridin-3-yl)piperazin-1-yl)acetamido)ethoxy)ethoxy)propanamido)-N-(6-(dimethylamino)pyridazin-3-yl)benzamide] | A (protein percentage degradation >=80%) |  | 
50 to 80 |  | CC(=O)c1c(C)c2cnc(Nc3ccc(N4CCN(CC(=O)NCCCCCCCCC(=O)Nc5ccccc5C(=O)Nc5nc(C)c(C)s5)CC4)cn3)nc2n(C2CCCC2)c1=O [CPD-113, 2-(9-(2-(4-(6-((6-Acetyl-8-cyclopentyl-5-methyl-7-oxo-7,8-dihydropyrido[2,3-d]pyrimidin-2-yl)amino)pyridin-3-yl)piperazin-1-yl)acetamido)nonanamido)-N-(4,5-dimethylthiazol-2-yl)benzamide] | A (protein percentage degradation >=80%) |  | 
 | < 30 | Cc1nc(NC(=O)c2ccccc2NC(=O)CCOCCOCCOCCOCCNC(=O)CN2CCN(Cc3ccc(Nc4ncc(F)c(-c5cc(F)c6nc(C)n(C(C)C)c6c5)n4)nc3)CC2)sc1C [CPD-283, N-(4,5-Dimethylthiazol-2-yl)-2-(1-(4-((6-((5-fluoro-4-(4-fluoro-1-isopropyl-2-methyl-1H-benzo[d]imidazol-6-yl)pyrimidin-2-yl)amino)pyridin-3-yl)methyl)piperazin-1-yl)-2-oxo-6,9,12,15-tetraoxa-3-azaoctadecan-18-amido)benzamide] |  | D (protein percentage degradation < 30%) | 
